Data reported in US8574831B2, “Mutational profiles in HIV-1 reverse transcriptase correlated with phenotypic drug resistance” (Virco N.V., priority 2000, dated 2013).

System: HIV with mutations in the HIV protease sequence
Experiment: Phenotypic fold resistance to protease inhibitors, protease mutations 84A/84L/84C/54M/54L/54V in a background (Examples 8-13)
Type: cell-based, HIV-1
Description: As is the case with the genotyping assays, the recombinant virus assay starts with the amplification of viral target sequences by means of PCR. The amplicons are incorporated into a proviral laboratory clone with sequences homologous to those present in the amplicon deleted. This generates a stock of chimeric viruses. The viruses are tested for their ability to grow in the presence of different concentrations of drugs. Results are obtained by calculating IC50 values for each inhibitor and by reporting the results as IC50 values, expressed in μM concentrations, or by computing the ratio of the IC50 values found for the chimeric virus to the IC50 values found for a wild type susceptible laboratory virus tested in parallel. In the latter case, resistance is expressed as “fold-resistance” compared to a wild-type susceptible HIV-1 strain. In order to meet the need for high-volume testing and a short turn-around time for an individual test, the latest generation of phenotyping assays has undergone further modifications. The use of reporter gene systems for susceptibility testing allows the implementation of laboratory automation and standardization. See Pauwels, et al., J. Virol. Methods 20, 309-321 (1998); Paulous, S., et al., International Workshop on HIV Drug Resistance, Treatment Strategies and Eradication, St. Petersburg, Fla., USA. Abstr. 46 (1997); and Deeks, S. G., et al., 2nd International Workshop on HIV Drug Resistance and Treatment Strategies, Lake Maggiore, Italy. Abstr. 53 (1998).
The ANTIVIROGRAM® assay (Virco) (WO 97/27480) is based on homologous recombination of patient derived HIV-1 gag/PR/RT sequences into a proviral HIV-1 clone correspondingly deleted for the gag/PR/RT sequences. See Pauwels, et al., J. Virol. Methods 20, 309-321 (1998). A similar assay (Phenosense ViroLogic) is based on enzymatic ligation of patient-derived PR/RT sequences into a correspondingly deleted proviral vector carrying an indicator gene, luciferase, inserted in the deleted HIV-1 envelope gene. See Deeks, S. G., et al., 2nd International Workshop on HIV Drug Resistance and Treatment Strategies, Lake Maggiore, Italy. Abstr. 53 (1998). Hertogs et al. Antimicrob. Agents Chemother. 44(3) 568-573 (2000) the disclosures of which are herein incorporated by reference.
The methods of monitoring HIV-1 drug resistance, may also be used in combination with phenotypic drug resistance testing of viral isolates. For example, in one embodiment, a phenotypic test is utilized that is based upon the construction of chimeric HIV-1 strains composed of the protease (PR) and reverse transcriptase (RT) gene sequences which are isolated and amplified from the patient viral RNA. These strains may subsequently be recombined inside CD4+ T cells with a standard laboratory isogenic (HXB2) HIV-1 DNA construct from which the PR/RT gene sequences were deleted. The recombinant strains may then be grown in the presence of the above-mentioned antiviral drugs and the susceptibility of the viral isolates may be expressed as fold-change value of the IC50 of the drug on the patient isolates over the IC50 of the drug on a wild-type laboratory reference strain.

`CC(C)(C)NC(=O)[C@@H]1CN(Cc2cccnc2)CCN1C[C@@H](O)C[C@@H](Cc1ccccc1)C(=O)N[C@H]1c2ccccc2C[C@H]1O` [Indinavir, indinavir] was tested, and the “mean fold increase in resistance” value (Table 9 #1, protease genotype WT) was 0.9 fold, the “mean fold increase in resistance” value (Table 9 #2, protease genotype 10I) was 0.7 fold and the “mean fold increase in resistance” value (Table 9 #3, protease genotype 46I) was 0.6 fold. The “mean fold increase in resistance” value (Table 9 #4, protease genotype 46I + 84V) was 2.6 fold, the “mean fold increase in resistance” value (Table 9 #5, protease genotype 46I + 84A) was 26.8 fold and the “mean fold increase in resistance” value (Table 9 #6, protease genotype 10I + 46I) was 2.9 fold. For the same compound, the “mean fold increase in resistance” value (Table 9 #7, protease genotype 10I + 46I + 84V) was 2.4 fold, the “mean fold increase in resistance” value (Table 9 #8, protease genotype 10I + 46I + 84A) was 33.4 fold and the “mean fold increase in resistance” value (Table 9 #9, protease genotype 10L/I + 46I + 84A) was 44.5 fold. The “mean fold increase in resistance” value (Table 9 #10, protease genotype 10I + 46I + 84A) was 26 fold, the “mean fold increase in resistance” value (Table 9 #11, protease genotype 46I + 71V) was 3.7 fold and the “mean fold increase in resistance” value (Table 9 #12, protease genotype 46I + 71V + 84V/I) was 3.1 fold. For the same compound, the “mean fold increase in resistance” value (Table 9 #13, protease genotype 46I + 71V + 84A) was 56.5 fold, the “mean fold increase in resistance” value (Table 9 #14, protease genotype 10F + 46I + 71V) was 22.2 fold and the “mean fold increase in resistance” value (Table 9 #15, protease genotype 10I + 46I + 71V + 84V) was 50.5 fold. For the same compound, the “mean fold increase in resistance” value (Table 9 #16, protease genotype 10I + 46I + 71V + 84A) was 45.9 fold, the “mean fold increase in resistance” value (Table 9 #17, protease genotype 10V + 46I + 71T + 84A) was 57.9 fold and the “mean fold increase in resistance” value (Table 9 #18, protease genotype 10I + 46I + 71V + 77I) was 2.2 fold. The “mean fold increase in resistance” value (Table 9 #19, protease genotype 10I + 46I + 71V + 77I + 84V) was 2.2 fold, the “mean fold increase in resistance” value (Table 9 #20, protease genotype 10I + 46I + 71V + 77I + 84A) was 57.9 fold and the “mean fold increase in resistance” value (Table 9 #21, protease genotype 10I + 33L/I + 46I + 71V + 77V/I + 84A) was 31.4 fold. The “mean fold increase in resistance” value (Table 10 #1, protease genotype 10I + 36I + 71V) was 1.4 fold, the “mean fold increase in resistance” value (Table 10 #2, protease genotype 10I + 36I + 71I + 84V) was 1.0 fold and the “mean fold increase in resistance” value (Table 10 #3, protease genotype 10I + 36I + 71I + 84L) was 3.7 fold. For the same compound, the “mean fold increase in resistance” value (Table 11 #1, protease genotype WT) was 0.9 fold, the “mean fold increase in resistance” value (Table 11 #2, protease genotype 84V) was 0.7 fold and the “mean fold increase in resistance” value (Table 11 #3, protease genotype 84C) was 2.7 fold. The “mean fold increase in resistance” value (Table 11 #4, protease genotype 10I) was 0.7 fold, the “mean fold increase in resistance” value (Table 11 #5, protease genotype 10I + 84V) was 1.8 fold and the “mean fold increase in resistance” value (Table 11 #6, protease genotype 10I + 84C) was 4.3 fold. For the same compound, the “mean fold increase in resistance” value (Table 11 #7, protease genotype 77I) was 0.4 fold, the “mean fold increase in resistance” value (Table 11 #8, protease genotype 77I + 84V) was 2.5 fold and the “mean fold increase in resistance” value (Table 11 #9, protease genotype 77I + 84C) was 3.1 fold. The “mean fold increase in resistance” value (Table 11 #10, protease genotype 77I + 84C) was 3.2 fold, the “mean fold increase in resistance” value (Table 11 #11, protease genotype 10I + 24I + 36I + 46I + 71V + 84C) was 7.5 fold and the “Fold change in IC50” value (Table 12, V19263, genotype 77I) was 0.4 fold. For the same compound, the “Fold change in IC50” value (Table 12, V20160, genotype WT) was 0.9 fold, the “Fold change in IC50” value (Table 12, V021667, genotype 10I) was 0.7 fold and the “Fold change in IC50” value (Table 12, V030496, genotype 10I + 77I) was 0.4 fold. The “Fold change in IC50” value (Table 12, V048869, genotype 10I + 54M + 77I + 90M) was 7.1 fold, the “Fold change in IC50” value (Table 12, V048872, genotype 33F + 54M + 77I + 90M) was 3.2 fold and the “Fold change in IC50” value (Table 12, V048873, genotype 33F + 54M + 77I + 90M) was 1.7 fold. For the same compound, the “Fold change in IC50” value (Table 12, V048877, genotype 10I + 33F + 77I + 90M) was 2.9 fold, the “Fold change in IC50” value (Table 12, V048878, genotype 10I + 33F + 54M + 71V + 77I + 90M) was 5.2 fold and the “Fold change in IC50” value (Table 12, V048879, genotype 10I + 33F + 54M + 71V + 77I + 90M) was 6.5 fold. For the same compound, the “Fold change in IC50” value (Table 12, V048880, genotype 10I + 33F + 77I + 90M) was 1.3 fold, the “Fold change in IC50” value (Table 12, V052940, genotype 71V) was 0.7 fold and the “Fold change in IC50” value (Table 12, V052942, genotype 10I + 71V) was 0.6 fold. For the same compound, the “Fold change in IC50” value (Table 12, V052943, genotype 10I + 90M) was 0.5 fold, the “Fold change in IC50” value (Table 12, V052944, genotype 10I + 90M) was 0.5 fold and the “Fold change in IC50” value (Table 12, V052945, genotype 77I + 90M) was 0.6 fold. The “Fold change in IC50” value (Table 12, V052946, genotype 71V + 90M) was 0.9 fold, the “Fold change in IC50” value (Table 12, V052947, genotype 10I + 77I + 90M) was 2.9 fold and the “Fold change in IC50” value (Table 12, V052948, genotype 10I + 71V + 90M) was 8.6 fold. For the same compound, the “Fold change in IC50” value (Table 12, V052949, genotype 10I + 71V + 77I + 90M) was 2.7 fold, the “Fold change in IC50” value (Table 12, V052950, genotype 33F) was 0.6 fold and the “Fold change in IC50” value (Table 12, V052951, genotype 33F + 77I) was 0.4 fold. For the same compound, the “Fold change in IC50” value (Table 12, V052953, genotype 10I + 33F + 77I) was 0.8 fold, the “Fold change in IC50” value (Table 12, V052954, genotype 33F + 77I + 90M) was 1.7 fold and the “Fold change in IC50” value (Table 12, V052955, genotype 33F + 71V + 90M) was 5.3 fold. The “Fold change in IC50” value (Table 12, V052977, genotype 10I + 33F + 54M) was 1.8 fold, the “Fold change in IC50” value (Table 12, V052978, genotype 10I + 33F + 54M + 71V + 90M) was 5.4 fold and the “Fold change in IC50” value (Table 12, V052979, genotype 10I + 54M) was 1.8 fold. The “Fold change in IC50” value (Table 12, V052980, genotype 10I + 54M + 90M) was 1.3 fold, the “Fold change in IC50” value (Table 12, V052981, genotype 10I + 54M + 71V + 90M) was 3.2 fold and the “Fold change in IC50” value (Table 12, V052982, genotype 10I + 54M + 71V + 77I + 90M) was 2.4 fold. For the same compound, the “Fold change in IC50” value (Table 12, V053832, genotype 10I + 33F) was 0.4 fold.
